Experimental data published in article PMC11444200, “In Vitro Evaluation of Antipseudomonal Activity and Safety Profile of Peptidomimetic Furin Inhibitors” (Biomedicines, 2024).
Like-named read-outs stand apart in the source and are kept apart here.

Assays:
[1] = tested on: Pseudomonas aeruginosa; test: viability (CCK-8) of MDCK cells challenged with Pseudomonas aeruginosa; type: cell-based; details: P. aeruginosa 10^6 CFU/mL, 5 h, inhibitor 2 h prior and during, tested 0.5-100 µM
Method: MDCK NBL-2 cells were obtained from Cytion (formerly: CLS Cell Lines Service, Eppenheim, Germany). Cells were grown in T-75 cell culture flasks, using Dulbecco’s Modified Eagle’s Medium (DMEM, Capricorn Scientific, Ebsdorfergrund, Germany) supplemented with 5% foetal bovine serum (FBS, Capricorn) and antibiotic–antimycotic solution (penicillin, streptomycin, amphotericin B; Merck, Darmstadt, Germany). The cells were subcultured and seeded in wells of 96-well microtiter plates one day prior to the experiments. After 24 h, near 100% confluence was recorded in the wells. The growth and incubation of MDCK cells were carried out in a humidified incubator at 37 °C and in the presence of 5% CO2. […] Three times single colonies from ten different blood agar plates were dissolved in 5 mL of distilled water, and colony-forming units (CFU) were counted after their serial dilution and overnight incubation on non-selective blood agar at 37 °C. […] The count of Pseudomonas aeruginosa from inoculating vials was also assessed and was in good accordance with our count prediction. […] Following the addition of the final reagent (100 µL fresh Williams’ Medium E) and a 2 h incubation period, the absorbance was measured at 450 nm using a SpectraMax iD3 (Molecular Devices, San José, CA, USA).

[2] = tested on: IPEC-J2 cells; test: CCK-8 cytotoxicity assay in IPEC-J2 cells; type: cell-based, porcine; details: 50 µM or 100 µM, 24 h
Method: The cell line used for the experiments was the IPEC-J2 from the jejunum of porcine. The IPEC-J2 epithelial cell line was a kind gift from Dr. Jody Gookin (Department of Clinical Sciences, College of Veterinary Medicine, North Carolina State University, Raleigh, NC, USA). The cell monolayers were maintained in 75 cm^2 cell culture flasks with filtered caps (Orange Scientific, Braine-l’Alleud, Belgium) at 37 °C in a humidified atmosphere containing 5% CO2. […]
The possible cytotoxic effects of the inhibitors MI-1851 and MI-2415 (structures provided in Figure 1) in different concentrations on IPEC-J2 and those of inhibitor MI-2415 on PHHs were assessed for 24 h by performing the CCK-8 assay (Dojindo Molecular Technologies, Rockville, MD, USA). […] Following three times washing of the wells with PBS, 10 µL CCK-8 reagent mixed with 100 µL fresh Williams’ Medium E was added and the absorbance values were measured at 450 nm using the SpectraMax iD3 microplate reader (Molecular Devices, San José, CA, USA) after 2 h incubation. […]

[3] = tested on: IPEC-J2 cells; test: DCFH-DA intracellular ROS assay in IPEC-J2 cells; type: cell-based, porcine; details: 50 and 100 μM, 24 h
Method: The cell line used for the experiments was the IPEC-J2 from the jejunum of porcine. The IPEC-J2 epithelial cell line was a kind gift from Dr. Jody Gookin (Department of Clinical Sciences, College of Veterinary Medicine, North Carolina State University, Raleigh, NC, USA). The cell monolayers were maintained in 75 cm^2 cell culture flasks with filtered caps (Orange Scientific, Braine-l’Alleud, Belgium) at 37 °C in a humidified atmosphere containing 5% CO2. The culture medium contained 50% Dulbecco’s modified Eagle’s medium (DMEM) and 50% Ham’s F12 Nutrient Mixture (Merck, Darmstadt, Germany) supplemented with 1.5 mmol/L HEPES, 5% fetal bovine serum (FBS) (Biocenter, Budapest, Hungary), 1% insulin/transferrin/sodium selenite medium supplement, 5 ng/mL epidermal growth factor (EGF), and 1% penicillin/streptomycin (all purchased from Invitrogen, Thermo Fisher Scientific, Waltham, MA, USA). Cells were used between passages 40 and 55. […]
The ability of inhibitors MI-1851 and MI-2415 to induce oxidative stress (ROS) within IPEC-J2 as well as of compound MI-2415 within PHHs was investigated with 2,7-dichloro-dihydro-fluorescein diacetate (DCFH2-DA). […] A Victor X2 2030 (Perkin Elmer, Waltham, MA, USA) was used to determine the fluorescence values of the samples (excitation wavelength: 485 nm, emission wavelength: 535 nm), which are directly proportional to the ROS generation.

[4] = tested on: mice; details: cited from earlier work; for tolerated i.p. dose: mice

SMILES | concentration with antipseudomonal effect (preserved MDCK cell viability) [1] [µM] | cell viability of IPEC-J2 cells [2] | intracellular ROS levels in IPEC-J2 cells [3] | tolerated i.p. dose ([4]; no higher dose was tested) [mg/kg] | tolerated i.p. dose [4] [mg/kg] | mortality ([4]; mouse, in vivo, ip, 20 mg/kg)
CC(C)(C)[C@H](NC(=O)[C@H](CCONC(=N)N)NC(=O)Cc1ccc(CNC(=N)N)cc1)C(=O)N[C@@H](CCONC(=N)N)C(=O)NCc1ccc(C(=N)N)cc1 [MI-1851] | 0.5 | did not show a significant decrease in cell viability | no significant alterations in intracellular ROS levels | 15 |  | 
CC(C)(C)[C@H](NC(=O)[C@H](CCONC(=N)N)NC(=O)Cc1ccc(CNC(=N)N)cc1)C(=O)N[C@@H](CCONC(=N)N)C(=O)NCc1ccc2c(c1)CN=C2N [MI-2415] | ≥ 25 | did not show a significant decrease in cell viability | no significant alterations in intracellular ROS levels |  | 15 | one of four mice died
